# According to PubChem BioAssay AID1981 (Southern Research Specialized Biocontainment Screening …, 2009):
# Values joined by “and” are separate entries in the source; they are usually repeats but may differ in a detail not shown here. Equal values may be shown once.
# Test system: S. Typhimurium PhoP-promoter GFP reporter counterscreen, fluorescence, 4 h
# Assay: S. Typhimurium GFP fluorescence modified counterscreen for PhoP regulon inhibitor project dose response (AID 1981)
row,SMILES,IC50
1,CN1CCN(c2c(F)cc3c(=O)c(C(=O)O)cn4c3c2SCC4)CC1,7.73 µM and 6.13 µM
2,C#CCOCCOCCOCCNc1nc(N2CCN(C(=O)CCCCCCCCCCNC(=O)[C@H](CCCCN)n3cc(C[C@@H](C)CC)nn3)CC2)nc(N2CCN(C(=O)CCCCCCCCCCNC(=O)[C@H](CCCN=C(N)N)n3cc(C[C@@H](C)CC)nn3)CC2)n1,140 µM
3,NC(Cc1cc(O)c(O)cc1O)C(=O)O (stereo not given),93 µM
4,CCn1cc(C(=O)NCCCO)c(=O)c2cc(F)c(N3CCN(C)CC3)cc21,46 µM
5,COc1ccc(/C=N/Nc2cc(C)nc3c(C)cccc23)cc1,93.3 µM
6,NC1=NC[C@H](Cc2ccccc2)N1CCCCC1CCCCC1,61.1 µM
7,CCn1cc(C(=O)O)c(=O)c2cc(F)c(N3CCN(C(=S)Nc4ccc(OC)cc4)CC3)cc21,7.49 µM
8,O=C(N/N=C/c1cc(Cl)ccc1O)c1ccncc1,31.2 µM
9,C#CCOCCOCCOCCNc1nc(N2CCN(C(=O)CCCCCCCCCCNC(=O)[C@H]([C@@H](C)CC)n3cc(CCCCN=C(N)N)nn3)CC2)nc(N2CCN(C(=O)CCCCCCCCCCNC(=O)[C@H](CCCN=C(N)N)n3cc(C[C@@H](C)CC)nn3)CC2)n1,30.6 µM
10,CCCCCc1ccc(OCCOCCn2c[n+](C)c3ccccc32)c(CCCCC)c1,55 µM
11,CCCCCN=C(N)N/N=C/c1c[nH]c2ccc(OC)cc12,40.4 µM
12,O=[N+]([O-])c1cc(Cl)c(O)c2ncccc12,5.99 µM
13,O=S(=O)(Nc1cc(Sc2ncn[nH]2)c(O)c2ccccc12)c1ccccc1,149 µM
14,c1cnc2c(c1)ccc1cccnc12,40 µM
15,Oc1cc(Cl)ccc1Oc1ccc(Cl)cc1Cl,0.68 µM
16,Nc1nc(N)c(Cc2ccc(Cl)cc2Cl)c(N)n1,149 µM
17,CN1CCN(C(c2ccc(Br)cc2)c2cc(Cl)c3cccnc3c2O)CC1 (stereo not given),24 µM
18,CCCCCCCCCC[n+]1cccc2c3ccccc3ccc21,43.8 µM
19,COc1cnc(-c2ccccn2)[nH]c1=O,45.7 µM
20,CCCCCCCCCCOC(=O)Cn1c(COc2cccc(C)c2)[n+](C)c2ccccc21,28.5 µM
21,Cc1ccccc1NC(=O)CCC(=O)N/N=C/c1cc([N+](=O)[O-])ccc1O,138 µM
22,O=C(NC(CO)Cc1ccc([N+](=O)[O-])cc1)C(Cl)Cl (stereo not given),9.48 µM
23,C=C1c2cccc(O)c2C(O)=C2C(=O)[C@]3(O)C(O)=C(C(N)=O)C(=O)[C@@H](N(C)C)[C@@H]3[C@@H](O)[C@H]12,0.39 µM
24,O=[N+]([O-])c1ccc(N/N=C/c2ccc[nH]2)cc1,141 µM
25,COC1C(OC(=O)c2ccc(C)[nH]2)C(O)C(Oc2ccc3c(O)c(NC(=O)c4ccc(O)c(CC=C(C)C)c4)c(=O)oc3c2Cl)OC1(C)C (stereo not given),19.3 µM

row,SMILES,IC50
1,Cc1ccnc(NC(c2cccnc2)c2ccc3cccnc3c2O)c1 (stereo not given),76.4 µM
2,CCN1CCN(C(c2ccc(C(F)(F)F)cc2)c2ccc3cccnc3c2O)CC1 (stereo not given),46.1 µM
3,CC(=O)Oc1ccc(C(=O)[C@H]2[C@H]3C(=O)N(c4ccc5ccccc5c4)C(=O)[C@H]3[C@@H]3C=CC=NN32)cc1,138 µM
4,COc1cccc(Nc2nc(NCC3CCCO3)c3ccccc3n2)c1 (stereo not given),102 µM
5,C/C(=N\NC(=O)c1cc2ccccc2cc1O)c1ccccn1,31.9 µM
6,CC(=O)NC(c1ccc2ccccc2c1)c1ccc2cccnc2c1O (stereo not given),46.2 µM
7,Cc1cc(C(=O)N/N=C/c2cc(Br)cc([N+](=O)[O-])c2O)c2ccccc2n1,93.5 µM
8,CCc1ccc(-c2nn(-c3ccccc3)cc2CSC(=N)N)cc1,40.4 µM
9,Cc1[nH]n(-c2ccccc2)c(=O)c1C(C[N+](=O)[O-])c1ccc(F)cc1 (stereo not given),109 µM
10,Fc1ccc(Nc2nc(NCc3ccco3)c3ccccc3n2)cc1,32.6 µM
11,C[C@H]1c2cccc(O)c2C(O)=C2C(=O)C3(O)C(O)=C(C(N)=O)C(=O)[C@@H](N(C)C)[C@@H]3[C@@H](O)[C@@H]21 (stereo not given in full),1.83 µM
12,Oc1c(C(c2ccccn2)N2CCOCC2)ccc2cccnc12 (stereo not given),118 µM
13,Cc1ccc(Nc2nc(N)c3ccccc3n2)cc1Cl,74.4 µM
14,Cc1cc(C(C)(C)CC(C)(C)C)ccc1OCCOCC[N+](C)(C)Cc1ccccc1,34.6 µM
15,O=C(c1cccs1)c1no[n+]([O-])c1C(=O)c1cccs1,13 µM
16,Oc1cccc2ccc(Nc3ccccn3)nc12,14.5 µM
17,O=[N+]([O-])c1ccc(-c2ccn[nH]2)o1,33.7 µM
18,O=C(C[n+]1cc(-c2ccc(Cl)cc2)n2c1CCC2)Nc1nc(-c2ccccc2)cs1,95 µM
19,O=[N+]([O-])c1cc(/C=N/Nc2nc3ccccc3[nH]2)c(O)cc1O,32.5 µM
20,CN1CCN(c2c(F)cc3c(=O)c(C(=O)O)cn4c3c2OCN4C)CC1,0.28 µM
21,Cc1nc2c(=O)n(C)c(=O)nc-2n(C)n1,0.6 µM
22,Oc1ccc(CN2CCN(Cc3ccccc3)CC2)c2cccnc12,59.2 µM
23,O=C(N/N=C/c1cc([N+](=O)[O-])ccc1O)C1CC1,45.2 µM
24,CCCCCCCCCn1c2c(c(=N)c3c1CCC3)CCC2,84.5 µM
25,CCCC(=O)NC(c1ccc(C)cc1)c1ccc2cccnc2c1O (stereo not given),54.7 µM

row,SMILES,IC50
1,Cc1c2ccncc2c(C)c2c1[nH]c1ccccc12,69.7 µM
2,Nc1nc2ccccc2n1Cc1ccc(Cl)c(Cl)c1,85.6 µM
3,CCN(CC)S(=O)(=O)c1cccc(C(=O)N/N=C/c2ccc(O)c(O)c2O)c1,78.9 µM
4,CC(C)(C)CC(C)(C)c1ccc(OCCOCC[N+](C)(C)Cc2ccccc2)cc1,47.1 µM
5,CCCCCCCSc1cc(OC)c(CCNC)cc1OC,71.8 µM
6,CCn1cc(C(=O)NCCCN(C)C)c(=O)c2cc(F)c(N3CCN(C)CC3)cc21,64.3 µM
7,CCCNC(=O)c1cn(CC)c2cc(N3CCN(C)CC3)c(F)cc2c1=O,40.5 µM
8,O=C(C[n+]1cccc(CNC(=O)c2ccc(OC(F)F)cc2)c1)Nc1ccc(SC(F)F)cc1,96.3 µM
9,O=Cc1ccc(O)c2ncccc12,6.78 µM
10,O=C(NNC(=O)c1cnccn1)c1ccc(Cl)cc1,89.5 µM
11,O=C(N/N=C/c1cccs1)c1cccs1,81.4 µM
12,O=[N+]([O-])c1ccc(O)c2ncccc12,2.7 µM
13,CCOc1ccc(Nc2c3ccccc3nc3ccccc23)cc1,94 µM
14,O=C(CSc1ccccn1)N/N=C/c1cc([N+](=O)[O-])ccc1O,45.6 µM
15,CCCCCCCCCCOC(=O)Cn1c(COc2ccccc2OC)[n+](C)c2ccccc21,37 µM
16,O=[N+]([O-])c1ccc(O)c(/C=N/Nc2ccccn2)c1,12.5 µM
17,CC[C@H]1OC(=O)[C@H](C)[C@@H](O[C@H]2C[C@@](C)(OC)[C@@H](O)[C@H](C)O2)[C@H](C)[C@@H](O[C@@H]2O[C@H](C)C[C@H](N(C)C)[C@H]2O)[C@](C)(O)C[C@@H](C)CN(C)[C@H](C)[C@@H](O)[C@]1(C)O,3.63 µM
18,O=c1cc2oc3cc(O)c(O)cc3c(-c3ccccc3[N+](=O)[O-])c-2cc1O,56.6 µM
19,N=c1n(Cc2ccccc2)c2ccccc2n1CC(O)COc1ccc(Cl)cc1Cl (stereo not given),49.4 µM
20,CC[C@H]1OC(=O)C[C@@H](O)[C@H](C)[C@@H](O[C@@H]2O[C@H](C)C[C@H](N(C)C)[C@H]2O)[C@@H](CC=O)C[C@@H](C)C(=O)C=C[C@]2(C)O[C@H]2[C@@H]1C,10.2 µM
21,CC(C)(C)/C(O)=C/c1nc2cc(Cl)ccc2oc1=O,55 µM
22,NCCc1c(-c2ccccc2)n(-c2ccccc2)c2ccccc12,83.7 µM
23,CCCCCCCCCCCCCCCC[n+]1cccc2ccccc21,19.5 µM
24,O=C(Cn1nc(CNc2ccc(Cl)cc2)[n+]2c1CCCCC2)c1ccc(Br)cc1,88.2 µM
25,COc1c(N2CCN(C(=S)Nc3ccccc3F)C(C)C2)c(F)cc2c(=O)c(C(=O)O)cn(C3CC3)c12 (stereo not given),2.31 µM
